Earlier results as cited in PMC3362725, “An open-label, phase 1 study evaluating safety, tolerability, and pharmacokinetics of linifanib (ABT-869) in Japanese patients with solid tumors” (Cancer Chemotherapy and Pharmacology, 2012).

Set-up: method as in PMID 17634482, PMID 17557949, PMID 21131369
Details: mixed-population TKI phase 1 studies, phase 2 recommended dose levels; cited from earlier work

SMILES | patients with Grade 3 hypertension
CC1(C)CNc2cc(NC(=O)c3cccnc3NCc3ccncc3)ccc21 [motesanib] | 14–20%
Cc1cc2c(F)c(Oc3ncnn4cc(OC[C@@H](C)O)c(C)c34)ccc2[nH]1 [brivanib] | 14–20%
